Laboratory results reported in the supplement of paper PMC10307832.

Tests used:
Assay in all cases: relative viability (nuclei count vs DMSO), 5 days (fraction); higher = more cells survive
[1] = compound: C#Cc1cccc(Nc2ncnc3cc(OC)c(OCCCCCCC(=O)NO)cc23)c1 [CUDC-101]
Outline: (§1)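 Cells of lung cancer lines were placed in 1536-well plates and kept overnight at 37 °C. Pinning then delivered five library-drug doses (not always all listed), spaced by √10, onto plates anchored with vehicle, and the cells were left 5 days without changing medium. One step fixed, permeabilised and stained them with Hoechst, and MetaXpress counted nuclei in 4× images. Viability, as a median over plates, is treated-well nuclei divided by vehicle-well nuclei, with acceptance only at control CV below 25% and at least one doubling.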

[2] = compound: C1=CC=C2C(=C1)N=C(S2)C(C#N)C3=NC(=NC=C3)NCCC4=CN=CC=C4
Outline: as §1

[3] = compound: COc1cc(N2CCC(N3CCN(C)CC3)CC2)ccc1Nc1ncc(Cl)c(Nc2ccccc2S(=O)(=O)C(C)C)n1 [NVP-TAE684]
Outline: as §1

[4] = compound: COc1cc2/c(=N/c3ccc(Br)cc3F)nc[nH]c2cc1OCC1CCN(C)CC1 [Vandetanib]
Outline: as §1

Cell Line	relative viability ([1]; 0.01 µM)	relative viability ([1]; 0.03162 µM)	relative viability ([1]; 0.1 µM)	relative viability ([1]; 0.3162 µM)	relative viability ([1]; 1 µM)	relative viability ([2]; 0.005 µM)	relative viability ([2]; 0.01581 µM)	relative viability ([2]; 0.05 µM)	relative viability ([2]; 0.1581 µM)	relative viability ([2]; 0.5 µM)	relative viability ([3]; 0.2 µM)	relative viability ([3]; 0.6325 µM)	relative viability ([3]; 2 µM)	relative viability ([4]; 0.02 µM)	relative viability ([4]; 0.06325 µM)	relative viability ([4]; 0.2 µM)	relative viability ([4]; 0.6325 µM)	relative viability ([4]; 2 µM)
EKVX	1.02	1.04	0.883	1.1	0.772	1.08	0.939	0.947	1.04	0.952	0.862	0.873	0.719	1	0.928	0.925	0.773	0.608
NCI-H1650	0.895	0.764	0.818	0.799	0.587	0.89	0.816	0.922	1	0.774	0.782	0.745	0.45	0.997	0.736	0.843	0.855	0.705
NCI-H1703	0.997	0.743	1.1	1.19	0.904	0.814	0.841	0.782	0.889	1.14	1.07	0.845	–	1.02	0.673	0.963	0.775	0.537
NCI-H727	0.954	0.869	1.04	0.827	0.629	0.904	0.903	0.832	1.13	0.78	0.806	0.91	0.515	0.894	0.809	0.906	0.796	0.681
NCI-H838	0.988	0.922	0.992	1.02	0.871	0.902	0.954	0.968	1.1	0.953	–	0.792	0.545	0.938	0.902	0.973	0.94	0.957
NCI-H1944	0.981	0.884	0.899	0.817	0.574	0.914	0.956	0.958	1.03	0.951	1.08	0.939	0.94	0.909	0.92	0.902	0.813	0.965
SK-LU-1	1.19	0.988	1.07	0.963	0.87	0.783	1.21	1.03	1.18	0.948	1.12	0.962	0.733	1.01	0.791	1.02	1.07	0.984
LC-2-ad	1.01	0.989	1.03	0.963	0.758	0.923	0.9	0.999	1.11	0.961	0.975	0.848	0.654	1.02	0.893	1.01	0.868	0.438
LOU-NH91	1.06	0.846	0.932	0.872	0.646	0.954	0.875	0.815	1.02	0.916	0.966	0.833	0.703	0.986	0.869	0.825	0.823	0.859
NCI-H2009	1	0.999	1.04	1.04	0.914	0.938	1	1.04	1.04	1.02	0.993	0.936	0.762	0.963	0.972	1.01	1.03	1.05
NCI-H647	1.08	0.899	1.04	0.987	0.801	0.814	0.997	0.927	1.16	0.893	0.924	1.01	0.723	0.965	0.946	0.968	0.933	0.872
NCI-H1666	1.04	0.92	0.992	1.05	0.858	1.09	0.988	1.04	1.01	0.99	0.922	0.933	0.812	0.991	0.932	0.891	1.01	0.918
A-427	1.02	0.978	0.949	0.932	0.738	0.993	0.875	0.919	1.15	0.95	1.11	0.847	0.863	0.955	0.963	0.953	0.98	0.96
NCI-H2170	0.974	0.987	1.06	1.01	0.9	0.894	0.991	0.949	1	0.913	0.995	0.969	1.04	0.944	0.917	1	0.97	0.989
NCI-H1395	1.05	0.883	0.952	0.974	0.648	0.876	–	0.922	1.11	0.995	1.01	0.777	0.977	0.909	0.954	0.856	0.938	0.795
NCI-H650	1.13	1.02	1.14	0.98	0.849	0.86	0.782	1.04	1.14	1.02	1.01	0.662	0.622	1.02	1	0.907	1.06	0.403
NCI-H1437	0.994	0.985	1.01	1.06	0.981	0.901	0.947	0.988	1.1	0.966	–	0.957	0.758	0.937	0.968	0.955	1.03	0.981
EBC-1	1	0.89	0.975	0.785	0.582	1.02	1.15	0.803	1.06	0.858	0.836	1.03	0.744	0.93	0.959	1.07	1.09	1.03
HCC-366	1.03	0.997	1.01	1.03	0.931	0.883	1.06	0.995	1.05	1.05	1.01	0.979	1.07	0.966	1.01	1.03	1.01	1.02

Cell Line	relative viability ([1]; 0.01 µM)	relative viability ([1]; 0.03162 µM)	relative viability ([1]; 0.1 µM)	relative viability ([1]; 0.3162 µM)	relative viability ([1]; 1 µM)	relative viability ([2]; 0.005 µM)	relative viability ([2]; 0.01581 µM)	relative viability ([2]; 0.05 µM)	relative viability ([2]; 0.1581 µM)	relative viability ([2]; 0.5 µM)	relative viability ([3]; 0.2 µM)	relative viability ([3]; 0.6325 µM)	relative viability ([3]; 2 µM)	relative viability ([4]; 0.02 µM)	relative viability ([4]; 0.06325 µM)	relative viability ([4]; 0.2 µM)	relative viability ([4]; 0.6325 µM)	relative viability ([4]; 2 µM)
NCI-H2342	1.06	0.931	0.973	0.996	0.923	0.82	0.978	0.874	1	0.938	0.917	0.849	0.647	1	0.964	0.953	0.95	0.949
NCI-H661	1.01	0.907	1.02	0.945	0.637	1.05	1.02	0.941	0.998	1.02	0.99	0.972	0.95	0.943	0.989	0.967	1.05	0.901
SW 900	0.927	0.881	0.803	0.878	0.624	0.899	0.845	0.885	1	0.823	0.96	0.754	0.776	0.898	0.887	0.65	0.93	0.775
HCC-78	1.01	0.918	0.954	0.809	0.416	1.08	0.92	1.07	1.07	0.996	0.824	0.658	0.495	1.02	0.841	0.958	0.974	0.853
HCC-44	0.858	1.03	1.02	0.951	0.968	0.999	1.03	1.04	1.05	1	1.09	0.969	0.749	0.939	0.965	1.02	0.998	0.966
NCI-H1355	1.03	0.957	0.967	0.976	0.883	0.934	0.931	0.986	1.1	0.912	0.961	0.921	0.75	0.997	0.892	1.01	1.02	0.957
NCI-H1993	1.04	0.916	0.833	0.95	0.664	0.901	0.882	0.929	1.04	0.842	0.813	0.885	0.703	1	0.922	0.944	0.871	0.754
NCI-H1734	1.01	0.942	1.05	0.95	0.703	0.787	0.91	0.963	1.14	0.871	0.983	0.901	0.705	0.954	0.93	1.03	0.894	1.01
IA-LM	1.01	0.861	1.06	0.879	0.697	0.834	1.19	0.997	1.02	0.762	0.712	0.885	0.75	0.996	0.895	0.946	1.09	1.15
SK-MES-1	0.968	0.984	0.989	0.971	0.683	1.05	1.02	0.949	1.09	0.882	1.02	–	0.714	1	0.896	1.03	0.912	0.827
COR-L 105	0.951	1.01	0.815	0.906	0.482	0.8	0.711	0.774	0.941	0.768	1.03	0.68	0.452	0.936	0.875	0.911	0.641	0.457
EMC-BAC-2	1.05	0.966	1.13	0.9	0.616	1.09	0.976	0.952	1.04	0.97	0.966	0.894	0.679	1.03	0.981	0.929	1.02	0.918
NCI-H1915	0.981	1.03	0.956	0.936	0.793	0.925	1.03	0.969	1.1	0.94	1.02	1.02	0.949	0.956	0.984	1.01	0.97	0.985
NCI-H522	0.879	1.09	1.01	0.979	0.743	0.958	0.795	0.761	1.11	0.878	0.953	0.874	0.923	0.915	1.03	0.91	0.933	0.97
NCI-H358	1.04	0.873	0.91	0.804	0.63	0.784	0.904	0.823	1.06	0.913	0.898	0.791	0.289	0.918	0.86	0.877	0.731	0.568
CAL-12T	1.16	1.03	0.993	1.05	0.951	1	0.912	0.962	1.07	0.798	0.904	0.956	0.466	1.07	0.909	0.954	0.885	0.729
NCI-H2085	1.01	1.03	1.02	0.981	0.893	0.928	0.983	0.977	1.01	0.998	0.986	–	0.914	1.04	0.99	0.99	1.01	0.931
NCI-H1299	1.01	0.998	1.02	1.01	0.919	1.06	1.05	0.95	1.06	0.974	1.05	1.01	–	1.01	0.963	1.05	1.01	1.02
